Measurements published in US11034718B2, “C-3 novel triterpenone with C-17 reverse amide derivatives as HIV inhibitors” (HETERO LABS LIMITED, priority 2015, dated 2021).
Where two headings read alike, the source gives them in different places.

Columns and labels:
Assay type in all cases: cell-based
[1] = system: HIV-1 strain 92HT599; assay: Antiviral activity against HIV-1 strain 92HT599 in MT2 cells (p24 estimation); conditions: HIV-1 92HT599, ~96 hours
In short: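 Percent inhibition versus vehicle controls came from p24 quantified in supernatant aliquots. These were taken after ~96 h incubation of compound (DMSO ≤1%) with MT2 cells infected at 10 TCID50/30,000 cells.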

[2] = system: HIV-1 pNL4-3 WT; assay: Antiviral activity against pNL4-3/WT strain in MT4 cells (p24 estimation); conditions: Human immunodeficiency virus 1, MT4, 96 h, read-out: pNL4-3 WT IC50
Procedure: (§1) Example 78: Evaluation of Compounds Antiviral Activity Against pNL4-3/WT & V7A Strains in MT4 Cells
(§2) MT4 cells were Transfected with HIV-1 Plasmid (pNL4-3-WT & V7A) (Cells were incubating with required number of TCID50 of HIV-1 for 1.5 h at 37° C.). After infection, the infected cells were plated at the concentration of 3×10^4 cells per well in 96 well plate. Test compound was added to the test plate in defined format with the final concentration of DMSO is not more than 1%. Incubation was carried out in CO2 incubator for 4 days for viral infection. At the end of incubation period an aliquot from each well was taken for p24 estimation. p24 estimation was carried out using Advance biosciences kit as per the procedure detailed by supplier.

[3] = system: HIV-1 pNL4-3 V7A; assay: Antiviral activity against pNL4-3/V7A strain in MT4 cells (p24 estimation); conditions: Human immunodeficiency virus 1, MT4, 96 h, read-out: pNL4-3 V7A IC50
Procedure: as §1, §2

[4] = Human immunodeficiency virus 1, 0% serum binding assay, read-out: IC50 0% serum
[5] = Human immunodeficiency virus 1, 40% serum binding assay, read-out: IC50 40% serum

| SMILES | IC50 [1, 4] [nM] | IC50 [1, 5] [nM] | IC50 [2] [nM] | IC50 [3] [nM] |
| --- | --- | --- | --- | --- |
| CC(C)C1=C2[C@H]3CC[C@@H]4[C@@]5(C)CC[C@H](OC(=O)[C@H]6C[C@@H](C(=O)O)C6(C)C)C(C)(C)[C@@H]5CC[C@@]4(C)[C@]3(C)CC[C@@]2(NC(=O)C(C)(C)NC(=O)c2nccn2C)CC1=O [Example 16, (1R,3S)-3-((((3aR,5aR,5bR,7aR,9S,11aR,11bR,13aS)-1-isopropyl-5a,5b,8,8,11a-pentamethyl-3a-(2-methyl-2-(1-methyl-1H-imidazole-2-carboxamido)propanamido)-2-oxo-3,3a,4,5,5a,5b,6,7,7a,8,9,10,11,11a,11b,12,13,13a-octadecahydro-2H-cyclopenta[a]chrysen-9-yl)oxy)carbonyl)-2,2-dimethylcyclobutane-1-carboxylic acid] | < 3 | 50 to 200 | 5.01 to 10 | > 50 |
| CC(C)C1=C2[C@H]3CC[C@@H]4[C@@]5(C)CC[C@H](OC(=O)[C@H]6C[C@@H](C(=O)O)C6(C)C)C(C)(C)[C@@H]5CC[C@@]4(C)[C@]3(C)CC[C@@]2(NC(=O)C(C)(C)NC(=O)c2cc(C(C)C)n[nH]2)CC1=O [Example 17, (1R,3S)-3-((((3aR,5aR,5bR,7aR,9S,11aR,11bR,13aS)-1-isopropyl-3a-(2-(3-isopropyl-1H-pyrazole-5-carboxamido)-2-methylpropanamido)-5a,5b,8,8,11a-pentamethyl-2-oxo-3,3a,4,5,5a,5b,6,7,7a,8,9,10,11,11a,11b,12,13,13a-octadecahydro-2H-cyclopenta[a]chrysen-9-yl)oxy)carbonyl)-2,2-dimethylcyclobutane-1-carboxylic acid] | < 3 | < 50 | < 5 | < 10 |
| CC(C)C1=C2[C@H]3CC[C@@H]4[C@@]5(C)CC[C@H](OC(=O)[C@H]6C[C@@H](C(=O)O)C6(C)C)C(C)(C)[C@@H]5CC[C@@]4(C)[C@]3(C)CC[C@@]2(NC(=O)C(C)(C)NC(=O)c2ccc(N3CCOCC3)cc2)CC1=O [Example 18, (1R,3S)-3-((((3aR,5aR,5bR,7aR,9S,11aR,11bR,13aS)-1-isopropyl-5a,5b,8,8,11a-pentamethyl-3a-(2-methyl-2-(4-morpholinobenzamido)propanamido)-2-oxo-3,3a,4,5,5a,5b,6,7,7a,8,9,10,11,11a,11b,12,13,13a-octadecahydro-2H-cyclopenta[a]chrysen-9-yl)oxy)carbonyl)-2,2-dimethylcyclobutane-1-carboxylic acid] | < 3 | < 50 | < 5 | < 10 |
| Cc1noc(C)c1C(=O)NC(C)(C)C(=O)N[C@@]12CC[C@]3(C)[C@H](CC[C@@H]4[C@@]5(C)CC[C@H](OC(=O)[C@H]6C[C@@H](C(=O)O)C6(C)C)C(C)(C)[C@@H]5CC[C@]43C)C1=C(C(C)C)C(=O)C2 [Example 19, (1R,3S)-3-((((3aR,5aR,5bR,7aR,9S,11aR,11bR,13aS)-3a-(2-(3,5-dimethylisoxazole-4-carboxamido)-2-methylpropanamido)-1-isopropyl-5a,5b,8,8,11a-pentamethyl-2-oxo-3,3a,4,5,5a,5b,6,7,7a,8,9,10,11,11a,11b,12,13,13a-octadecahydro-2H-cyclopenta[a]chrysen-9-yl)oxy)carbonyl)-2,2-dimethylcyclobutane-1-carboxylic acid] | < 3 | < 50 | < 5 | < 10 |
| Cc1cn(-c2ccc(C(=O)NC(C)(C)C(=O)N[C@@]34CC[C@]5(C)[C@H](CC[C@@H]6[C@@]7(C)CC[C@H](OC(=O)[C@H]8C[C@@H](C(=O)O)C8(C)C)C(C)(C)[C@@H]7CC[C@]65C)C3=C(C(C)C)C(=O)C4)cc2)cn1 [Example 20, (1R,3S)-3-((((3aR,5aR,5bR,7aR,9S,11aR,11bR,13aS)-1-isopropyl-5a,5b,8,8,11a-pentamethyl-3a-(2-methyl-2-(4-(4-methyl-1H-imidazol-1-yl)benzamido)propanamido)-2-oxo-3,3a,4,5,5a,5b,6,7,7a,8,9,10,11,11a,11b,12,13,13a-octadeca hydro-2H-cyclopenta[a]chrysen-9-yl)oxy)carbonyl)-2,2-dimethylcyclobutane-1-carboxylic acid] | < 3 | < 50 | > 10 | > 50 |
| CC(C)C1=C2[C@H]3CC[C@@H]4[C@@]5(C)CC[C@H](OC(=O)[C@H]6C[C@@H](C(=O)O)C6(C)C)C(C)(C)[C@@H]5CC[C@@]4(C)[C@]3(C)CC[C@@]2(NC(=O)C(C)(C)NC(=O)c2ccc(C(F)(F)F)cc2)CC1=O [Example 25, (1R,3S)-3-((((3aR,5aR,5bR,7aR,9S,11aR,11bR,13aS)-1-isopropyl-5a,5b,8,8,11a-pentamethyl-3a-(2-methyl-2-(4-(trifluoromethyl)benzamido)propan amido)-2-oxo-3,3a,4,5,5a,5b,6,7,7a,8,9,10,11,11a,11b,12,13,13a-octadecahydro-2H-cyclopenta[a]chrysen-9-yl)oxy)carbonyl)-2,2-dimethylcyclobutane-1-carboxylic acid] | < 3 | < 50 | < 5 | < 10 |
| CC(C)C1=C2[C@H]3CC[C@@H]4[C@@]5(C)CC[C@H](OC(=O)[C@H]6C[C@@H](C(=O)O)C6(C)C)C(C)(C)[C@@H]5CC[C@@]4(C)[C@]3(C)CC[C@@]2(NC(=O)C(C)(C)NC(=O)c2ccc3ccccc3n2)CC1=O [Example 28, (1R,3S)-3-((((3aR,5aR,5bR,7aR,9S,11aR,11bR,13aS)-1-isopropyl-5a,5b,8,8,11a-pentamethyl-3a-(2-methyl-2-(quinoline-2-carboxamido)propanamido)-2-oxo-3,3a,4,5,5a,5b,6,7,7a,8,9,10,11,11a,11b,12,13,13a-octadecahydro-2H-cyclopenta[a]chrysen-9-yl)oxy)carbonyl)-2,2-dimethylcyclobutane-1-carboxylic acid] | < 3 | < 50 | 5.01 to 10 | 10 to 50 |
| Cc1occc1C(=O)NC(C)(C)C(=O)N[C@@]12CC[C@]3(C)[C@H](CC[C@@H]4[C@@]5(C)CC[C@H](OC(=O)[C@H]6C[C@@H](C(=O)O)C6(C)C)C(C)(C)[C@@H]5CC[C@]43C)C1=C(C(C)C)C(=O)C2 [Example 30, (1R,3S)-3-((((3aR,5aR,5bR,7aR,9S,11aR,11bR,13aS)-1-isopropyl-5a,5b,8,8,11a-pentamethyl-3a-(2-methyl-2-(2-methylfuran-3-carboxamido)propan amido)-2-oxo-3,3a,4,5,5a,5b,6,7,7a,8,9,10,11,11a,11b,12,13,13a-octadecahydro-2H-cyclopenta[a]chrysen-9-yl)oxy)carbonyl)-2,2-dimethylcyclobutane-1-carboxylic acid] | < 3 | < 50 | 5.01 to 10 | > 50 |
| CC(C)C1=C2[C@H]3CC[C@@H]4[C@@]5(C)CC[C@H](OC(=O)[C@H]6C[C@@H](C(=O)O)C6(C)C)C(C)(C)[C@@H]5CC[C@@]4(C)[C@]3(C)CC[C@@]2(NC(=O)C(C)(C)NC(=O)c2cccnc2N2CCOCC2)CC1=O [Example 31, (1R,3S)-3-((((3aR,5aR,5bR,7aR,9S,11aR,11bR,13aS)-1-isopropyl-5a,5b,8,8,11a-pentamethyl-3a-(2-methyl-2-(2-morpholinonicotinamido)propan amido)-2-oxo-3,3a,4,5,5a,5b,6,7,7a,8,9,10,11,11a,11b,12,13,13a-octadecahydro-2H-cyclopenta[a]chrysen-9-yl)oxy)carbonyl)-2,2-dimethylcyclobutane-1-carboxylic acid] | < 3 | < 50 | < 5 | > 50 |
| CC(C)C1=C2[C@H]3CC[C@@H]4[C@@]5(C)CC[C@H](OC(=O)[C@H]6C[C@@H](C(=O)O)C6(C)C)C(C)(C)[C@@H]5CC[C@@]4(C)[C@]3(C)CC[C@@]2(NC(=O)C(C)(C)NC(=O)c2ncccn2)CC1=O [Example 32, (1R,3S)-3-((((3aR,5aR,5bR,7aR,9S,11aR,11bR,13aS)-1-isopropyl-5a,5b,8,8,11a-pentamethyl-3a-(2-methyl-2-(pyrimidine-2-carboxamido)propanamido)-2-oxo-3,3a,4,5,5a,5b,6,7,7a,8,9,10,11,11a,11b,12,13,13a-octadecahydro-2H-cyclopenta[a]chrysen-9-yl)oxy)carbonyl)-2,2-dimethylcyclobutane-1-carboxylic acid] | 3.01 to 10 | > 200 | > 10 | > 50 |
| Cc1cc(C(=O)NC(C)(C)C(=O)N[C@@]23CC[C@]4(C)[C@H](CC[C@@H]5[C@@]6(C)CC[C@H](OC(=O)[C@H]7C[C@@H](C(=O)O)C7(C)C)C(C)(C)[C@@H]6CC[C@]54C)C2=C(C(C)C)C(=O)C3)c(C)o1 [Example 33, (1R,3S)-3-((((3aR,5aR,5bR,7aR,9S,11aR,11bR,13aS)-3a-(2-(2,5-dimethylfuran-3-carboxamido)-2-methylpropanamido)-1-isopropyl-5a,5b,8,8,11a-pentamethyl-2-oxo-3,3a,4,5,5a,5b,6,7,7a,8,9,10,11,11a,11b,12,13,13a-octadecahydro-2H-cyclopenta[a]chrysen-9-yl)oxy)carbonyl)-2,2-dimethylcyclobutane-1-carboxylic acid] | < 3 | < 50 | < 5 | < 10 |
